Tests used:
JAK2(h) = JAK2(h) (Homo sapiens, UniProt O60674); assay: kinase panel activity, JAK2(h); type: biochemical; details: compound at 20 μM; vs reference with no compound
PKCβI(h) = PKCβI(h) (Homo sapiens, UniProt P05771); assay: kinase panel activity, PKCβI(h); type: biochemical; details: compound at 20 μM; vs reference with no compound
PKCθ(h) = PKCθ(h) (Homo sapiens, UniProt Q04759); assay: kinase panel activity, PKCθ(h); type: biochemical; details: compound at 20 μM; vs reference with no compound
PKCγ(h) = PKCγ(h) (Homo sapiens, UniProt P05129); assay: kinase panel activity, PKCγ(h); type: biochemical; details: compound at 20 μM; vs reference with no compound
Snk(h) = Snk(h) (Homo sapiens, UniProt Q9NYY3); assay: kinase panel activity, Snk(h); type: biochemical; details: compound at 20 μM; vs reference with no compound
IKKα(h) = IKKα(h) (Homo sapiens, UniProt O15111); assay: kinase panel activity, IKKα(h); type: biochemical; details: compound at 20 μM; vs reference with no compound
TrkB(h) = TrkB(h) (Homo sapiens, UniProt Q16620); assay: kinase panel activity, TrkB(h); type: biochemical; details: compound at 20 μM; vs reference with no compound
Flt3(h) = Flt3(h) (Homo sapiens, UniProt P36888); assay: kinase panel activity, Flt3(h); type: biochemical; details: compound at 20 μM; vs reference with no compound
IR(h) = IR(h) (Homo sapiens, UniProt P06213); assay: kinase panel activity, IR(h); type: biochemical; details: compound at 20 μM; vs reference with no compound
PKCδ(h) = PKCδ(h) (Homo sapiens, UniProt Q05655); assay: kinase panel activity, PKCδ(h); type: biochemical; details: compound at 20 μM; vs reference with no compound
PKCζ(h) = PKCζ(h) (Homo sapiens, UniProt Q05513); assay: kinase panel activity, PKCζ(h); type: biochemical; details: compound at 20 μM; vs reference with no compound
PAK2(h) = PAK2(h) (Homo sapiens, UniProt Q13177); assay: kinase panel activity, PAK2(h); type: biochemical; details: compound at 20 μM; vs reference with no compound
PKD2(h) = PKD2(h) (Homo sapiens, UniProt Q9BZL6); assay: kinase panel activity, PKD2(h); type: biochemical; details: compound at 20 μM; vs reference with no compound
PAK3(h) = PAK3(h) (Homo sapiens, UniProt O75914); assay: kinase panel activity, PAK3(h); type: biochemical; details: compound at 20 μM; vs reference with no compound
CDK5/p25(h) = CDK5/p25(h) (Homo sapiens, UniProt Q00535); assay: kinase panel activity, CDK5/p25(h); type: biochemical; details: compound at 20 μM; vs reference with no compound
Abl(T315I)(h) = Abl(T315I)(h) (Homo sapiens, UniProt P00519, T315I); assay: kinase panel activity, Abl(T315I)(h); type: biochemical; details: compound at 20 μM; vs reference with no compound
Abl(h) = Abl(h) (Homo sapiens, UniProt P00519); assay: kinase panel activity, Abl(h); type: biochemical; details: compound at 20 μM; vs reference with no compound
FL5.12 cells = assay: growth of hematopoietic cell line FL5.12; type: cell-based; details: 0.1, 1, 10 and 100 μM for 24 hours; in the presence of IL-3; Coulter counter
Description: Hematopoietic cell line FL5.12 cells were seed at equal density and grown in the presence of IL-3, a growth factor.

IRS-1 = IRS-1 expression and phosphorylation on a high calorie diet; type: in vivo
Description: In addition, IRS-1 is phosphorylated at serine 307 (referred to PIRS-1).

Sequence of CDK5/p25(h) (Q00535 whole entry): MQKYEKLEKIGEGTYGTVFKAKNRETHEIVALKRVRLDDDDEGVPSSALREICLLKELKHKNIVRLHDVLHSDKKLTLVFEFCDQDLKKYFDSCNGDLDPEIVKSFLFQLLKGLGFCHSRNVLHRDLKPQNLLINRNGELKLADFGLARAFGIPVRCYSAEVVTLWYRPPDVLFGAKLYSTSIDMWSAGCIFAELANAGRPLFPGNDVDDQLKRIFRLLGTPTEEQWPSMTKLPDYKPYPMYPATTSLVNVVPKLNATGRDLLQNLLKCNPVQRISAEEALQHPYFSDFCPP
Sequence of CDK5/p25(h) (Q15078 99-307 partner limits assumed): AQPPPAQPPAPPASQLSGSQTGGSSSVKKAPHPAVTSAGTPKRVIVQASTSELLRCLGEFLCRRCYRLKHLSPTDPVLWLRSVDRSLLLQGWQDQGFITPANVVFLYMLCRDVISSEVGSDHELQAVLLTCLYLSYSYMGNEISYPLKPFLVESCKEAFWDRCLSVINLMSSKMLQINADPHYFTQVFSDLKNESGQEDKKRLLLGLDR
Sequence of IKKα(h) (O15111 whole entry): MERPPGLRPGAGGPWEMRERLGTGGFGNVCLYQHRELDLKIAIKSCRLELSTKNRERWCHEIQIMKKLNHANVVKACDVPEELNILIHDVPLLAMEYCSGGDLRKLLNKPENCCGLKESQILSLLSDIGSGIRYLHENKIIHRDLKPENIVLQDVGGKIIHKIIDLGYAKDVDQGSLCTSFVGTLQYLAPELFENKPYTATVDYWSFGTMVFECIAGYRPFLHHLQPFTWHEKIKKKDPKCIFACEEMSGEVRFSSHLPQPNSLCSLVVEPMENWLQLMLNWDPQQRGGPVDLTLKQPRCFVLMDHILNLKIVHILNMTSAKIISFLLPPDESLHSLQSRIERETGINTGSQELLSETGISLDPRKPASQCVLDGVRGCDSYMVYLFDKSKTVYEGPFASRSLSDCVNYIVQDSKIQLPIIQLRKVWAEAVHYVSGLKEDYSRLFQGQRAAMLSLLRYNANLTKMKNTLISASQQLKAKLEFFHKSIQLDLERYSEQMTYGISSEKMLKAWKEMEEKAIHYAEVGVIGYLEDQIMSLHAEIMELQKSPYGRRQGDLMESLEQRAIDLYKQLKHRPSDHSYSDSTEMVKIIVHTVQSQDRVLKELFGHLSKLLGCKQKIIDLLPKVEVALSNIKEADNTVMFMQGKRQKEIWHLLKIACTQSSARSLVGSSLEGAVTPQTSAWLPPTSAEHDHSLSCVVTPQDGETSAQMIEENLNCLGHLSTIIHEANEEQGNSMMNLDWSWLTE
Sequence of TrkB(h) (Q16620 32-822): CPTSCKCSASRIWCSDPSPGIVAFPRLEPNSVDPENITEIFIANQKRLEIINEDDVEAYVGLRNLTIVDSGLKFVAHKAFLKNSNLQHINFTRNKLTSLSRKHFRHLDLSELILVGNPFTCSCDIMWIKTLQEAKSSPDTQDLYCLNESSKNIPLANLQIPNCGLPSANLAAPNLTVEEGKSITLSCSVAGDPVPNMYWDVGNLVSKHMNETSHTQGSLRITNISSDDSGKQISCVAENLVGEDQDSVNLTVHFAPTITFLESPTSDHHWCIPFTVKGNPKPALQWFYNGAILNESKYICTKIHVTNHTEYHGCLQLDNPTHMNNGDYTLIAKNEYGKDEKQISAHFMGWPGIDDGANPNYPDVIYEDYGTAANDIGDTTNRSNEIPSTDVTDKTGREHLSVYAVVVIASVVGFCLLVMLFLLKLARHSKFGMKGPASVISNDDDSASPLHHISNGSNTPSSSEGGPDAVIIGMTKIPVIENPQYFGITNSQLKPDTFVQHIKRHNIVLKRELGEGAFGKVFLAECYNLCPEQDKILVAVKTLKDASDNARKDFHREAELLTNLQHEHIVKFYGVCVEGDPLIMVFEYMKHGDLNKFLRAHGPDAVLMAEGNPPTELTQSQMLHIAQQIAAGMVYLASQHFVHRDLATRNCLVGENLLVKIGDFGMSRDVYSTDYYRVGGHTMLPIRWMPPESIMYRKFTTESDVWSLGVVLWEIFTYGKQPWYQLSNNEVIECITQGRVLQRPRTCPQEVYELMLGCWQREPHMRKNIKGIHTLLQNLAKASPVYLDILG
Sequence of IR(h) (P06213 28-1382): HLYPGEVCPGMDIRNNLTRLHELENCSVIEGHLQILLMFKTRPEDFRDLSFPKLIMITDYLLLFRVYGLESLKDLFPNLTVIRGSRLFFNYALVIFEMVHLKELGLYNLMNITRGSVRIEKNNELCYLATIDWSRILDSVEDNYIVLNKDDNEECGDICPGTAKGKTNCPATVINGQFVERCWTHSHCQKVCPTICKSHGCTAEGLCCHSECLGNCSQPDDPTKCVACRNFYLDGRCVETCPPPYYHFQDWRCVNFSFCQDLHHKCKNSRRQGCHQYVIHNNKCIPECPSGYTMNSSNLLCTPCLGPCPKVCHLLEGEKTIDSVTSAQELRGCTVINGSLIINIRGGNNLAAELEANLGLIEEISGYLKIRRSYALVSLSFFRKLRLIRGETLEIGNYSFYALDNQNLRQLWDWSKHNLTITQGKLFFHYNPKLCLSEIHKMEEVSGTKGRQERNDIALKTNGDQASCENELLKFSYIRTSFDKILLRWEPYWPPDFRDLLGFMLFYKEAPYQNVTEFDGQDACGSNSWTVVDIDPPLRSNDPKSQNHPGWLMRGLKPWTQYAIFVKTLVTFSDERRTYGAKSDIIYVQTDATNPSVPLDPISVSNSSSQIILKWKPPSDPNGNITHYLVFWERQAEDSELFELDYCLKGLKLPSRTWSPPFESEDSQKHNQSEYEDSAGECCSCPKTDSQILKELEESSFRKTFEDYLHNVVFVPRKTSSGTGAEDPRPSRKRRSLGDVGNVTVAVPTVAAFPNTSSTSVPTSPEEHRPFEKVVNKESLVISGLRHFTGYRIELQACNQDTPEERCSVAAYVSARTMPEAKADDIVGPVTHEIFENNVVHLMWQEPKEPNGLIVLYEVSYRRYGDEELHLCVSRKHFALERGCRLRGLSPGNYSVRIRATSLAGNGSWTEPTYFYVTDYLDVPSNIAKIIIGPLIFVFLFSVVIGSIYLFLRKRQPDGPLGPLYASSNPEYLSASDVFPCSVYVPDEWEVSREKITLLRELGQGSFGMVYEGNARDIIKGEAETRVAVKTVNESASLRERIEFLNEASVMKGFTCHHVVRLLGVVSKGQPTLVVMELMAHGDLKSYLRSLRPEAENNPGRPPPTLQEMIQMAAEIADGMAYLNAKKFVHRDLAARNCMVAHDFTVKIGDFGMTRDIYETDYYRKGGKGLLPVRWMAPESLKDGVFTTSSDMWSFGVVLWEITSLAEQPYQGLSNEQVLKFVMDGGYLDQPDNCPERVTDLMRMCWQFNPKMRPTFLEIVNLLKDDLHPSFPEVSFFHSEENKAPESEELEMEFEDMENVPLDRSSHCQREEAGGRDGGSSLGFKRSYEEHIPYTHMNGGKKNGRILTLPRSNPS
Sequence of Snk(h) (Q9NYY3 whole entry): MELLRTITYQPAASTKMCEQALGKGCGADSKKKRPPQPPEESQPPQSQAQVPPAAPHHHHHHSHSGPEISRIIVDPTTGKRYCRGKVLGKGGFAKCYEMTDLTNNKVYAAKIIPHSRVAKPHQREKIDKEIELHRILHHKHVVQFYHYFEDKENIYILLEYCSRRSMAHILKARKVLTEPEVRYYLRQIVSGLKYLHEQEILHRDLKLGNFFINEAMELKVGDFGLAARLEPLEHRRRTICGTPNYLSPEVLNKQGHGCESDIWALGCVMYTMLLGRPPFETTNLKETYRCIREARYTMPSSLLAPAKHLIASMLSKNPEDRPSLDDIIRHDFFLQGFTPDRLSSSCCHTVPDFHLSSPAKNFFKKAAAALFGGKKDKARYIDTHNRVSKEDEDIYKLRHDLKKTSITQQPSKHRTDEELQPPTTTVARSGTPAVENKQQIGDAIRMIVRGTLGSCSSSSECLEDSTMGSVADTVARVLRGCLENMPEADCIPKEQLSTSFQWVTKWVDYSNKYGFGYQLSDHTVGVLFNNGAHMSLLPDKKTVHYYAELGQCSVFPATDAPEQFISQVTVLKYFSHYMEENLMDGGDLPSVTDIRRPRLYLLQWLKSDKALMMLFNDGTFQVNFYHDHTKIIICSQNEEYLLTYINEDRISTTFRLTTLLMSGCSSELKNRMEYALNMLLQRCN
Sequence of PKCβI(h) (P05771 whole entry): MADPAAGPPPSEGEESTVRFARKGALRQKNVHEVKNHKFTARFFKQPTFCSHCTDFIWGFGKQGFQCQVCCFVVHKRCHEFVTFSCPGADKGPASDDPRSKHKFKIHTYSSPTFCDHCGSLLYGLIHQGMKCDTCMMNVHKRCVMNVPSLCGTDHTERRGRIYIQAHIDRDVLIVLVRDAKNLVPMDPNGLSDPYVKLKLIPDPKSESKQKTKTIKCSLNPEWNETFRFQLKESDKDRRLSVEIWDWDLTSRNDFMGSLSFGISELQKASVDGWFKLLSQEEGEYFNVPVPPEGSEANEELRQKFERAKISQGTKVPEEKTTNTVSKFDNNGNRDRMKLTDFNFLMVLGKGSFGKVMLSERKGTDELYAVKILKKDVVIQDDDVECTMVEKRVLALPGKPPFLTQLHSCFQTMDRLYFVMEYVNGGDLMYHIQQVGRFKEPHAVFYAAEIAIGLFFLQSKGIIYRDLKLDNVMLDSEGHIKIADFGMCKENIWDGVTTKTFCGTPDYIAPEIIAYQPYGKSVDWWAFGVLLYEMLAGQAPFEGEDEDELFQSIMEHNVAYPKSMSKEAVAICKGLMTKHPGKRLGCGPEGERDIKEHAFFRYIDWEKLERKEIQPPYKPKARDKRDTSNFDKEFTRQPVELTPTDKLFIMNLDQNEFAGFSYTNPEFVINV

## O=C(O)[C@H]1O[C@@H](Oc2ccc(/C=C/c3cc(O)cc(O)c3)cc2)[C@H](O)[C@@H](O)[C@@H]1O [Res 4′-Gluc, resveratrol-4-glucuronide]
JAK2(h)
  percent activity of JAK2(h): 95%
PKCβI(h)
  percent activity of PKCβI(h): 119%
PKCθ(h)
  percent activity of PKCθ(h): 103%
PKCγ(h)
  percent activity of PKCγ(h): 77%
Snk(h)
  percent activity of Snk(h): 87%
IKKα(h)
  percent activity of IKKα(h): 113%
TrkB(h)
  percent activity of TrkB(h): 100%
Flt3(h)
  percent activity of Flt3(h): 48%
IR(h)
  percent activity of IR(h): 80%
PKCδ(h)
  percent activity of PKCδ(h): 110%
PKCζ(h)
  percent activity of PKCζ(h): 104%
PAK2(h)
  percent activity of PAK2(h): 105%
PKD2(h)
  percent activity of PKD2(h): 113%
PAK3(h)
  percent activity of PAK3(h): 75%
CDK5/p25(h)
  percent activity of CDK5/p25(h): 91%
Abl(T315I)(h)
  percent activity of Abl(T315I)(h): 93%
Abl(h)
  percent activity of Abl(h): 97%

## Oc1ccc(C=Cc2cc(O)cc(O)c2)cc1 [resveratrol, 3,5,4′-trihydroxystilbene]
FL5.12 cells
  inhibition of FL5.12 cell growth: dose dependent inhibition
Snk(h)
  percent activity of Snk(h): 81%
IKKα(h)
  percent activity of IKKα(h): 40%
TrkB(h)
  percent activity of TrkB(h): 98%
IR(h)
  percent activity of IR(h): 71%
IRS-1; approximately 22 mg/kg resveratrol added to diet
  expression level of IRS-1: significantly reduced
IRS-1; resveratrol treatment
  proportion of phosphorylated IRS-1 (PIRS-1, serine 307): increases
CDK5/p25(h)
  percent activity of CDK5/p25(h): 64%
